Reference: patent publication US20110166196A1, “TREATMENT AND PROPHYLAXIS OF EPILEPSY AND FEBRILE SEIZURES” (priority 2008, published 2011)
One block for each molecule: values may come before it.

Tests used:
[1] = test system: excitatory synapses onto CA1 hippocampal interneurons; test: HFS-induced long-term depression (LTD) of EPSCs, whole-cell recording in hippocampal slices; assay type: cell-based, rat
Source text: (§1) The basic methods have been detailed previously (McMahon and Kauer, 1997). Sprague-Dawley rats (15-22 days old) were used in the majority of experiments. In addition, we used TRPV1^−/− mice (Caterina et al., 2000) and wild-type C57BL/6 mice aged between 15 and 21 days (Jackson Laboratory). The TRPV1^−/− mice we used have been backcrossed at least 10 times onto a C57BL/6 background and were obtained from homozygous breeding pairs. Control mice were therefore not littermates but were age-matched, wild-type C57BL/6 animals received from the same supplier in the same shipment. All animal protocols were approved by the Brown University Institutional Animal Care and Use Committee. For mouse experiments, only one brain slice per mouse was used for each experiment, so that reported ‘n’ numbers represent the number of animals. Animals were anaesthetized using halothane or isoflurane and quickly decapitated. The brain was rapidly removed and 300 μm thick coronal slices prepared and stored for at least one hour submerged on a net in artificial cerebrospinal fluid (ACSF) containing in mM: 119 NaCl, 26 NaHCO3, 2.5 KCl, 1.0 NaH2PO4, 2.5 CaCl2, 1.3 MgSO4 and 11 dextrose, saturated with 95% O2/5% CO2 (pH 7.4). Slices were then transferred to a submerged recording chamber and bathed in oxygenated ACSF (28-32° C.) containing elevated divalent cations to reduce epileptiform activity (4 mM CaCl2 and 4 mM MgCl2, replacing MgSO4). A surgical cut was made between the CA3 and CA1 regions. The storage of slices submerged on a net rather than in an interface chamber on filter paper may be important in maintaining slice health and improving the likelihood of observing LTD.
(§2) Slices were continuously perfused with ACSF warmed to 28-32° C. at a flow rate of 1-2 ml/min. Picrotoxin (100 μM) and D-AP5 (50 μM) were added to block GABAA receptor- and NMDAR-mediated synaptic transmission. Whole-cell patch clamp recordings were made from interneurons identified visually in the CA1 stratum radiatum of the hippocampus. […] Patch pipettes were filled with internal recording solution containing in mM: 117 cesium gluconate, 2.8 NaCl, 5 MgCl2, 20 HEPES, 2 ATP-Na^+, 0.3 GTP-Na^+ and 0.6 EGTA. In some experiments 2 μM capsazepine, 140 nM baicalein, or 250 μM GDPβS were also included in the intracellular patch pipette solution. In experiments with BAPTA-containing patch electrodes, EGTA was omitted from the intracellular solution and 25 or 40 mM BAPTA replaced a corresponding amount of cesium gluconate. EPSCs were stimulated at 0.1 Hz (100 μsec) using a bipolar stainless steel stimulating electrode placed in stratum radiatum at least 200 μm from the recorded cell. CA1 interneurons were voltage clamped at −65 mV (not corrected for the liquid junction potential, of ˜10 mV), and EPSCs were evoked by paired pulses with an interval of 50 msec (stimulus intensity typically 50-400 μA). In early experiments, we measured rectification ratios of EPSCs evoked at +40 mV/−60 mV in the presence of 50 μM D-AP5, measured at the time of peak inward synaptic current seen at −70 mV (Lei and McBain, 2004).
High-frequency stimulation was used to induce LTD (HFS; two 1 sec trains at 100 Hz, inter-train interval 20 sec, at 1.5 times test current intensity) with the neuron held in current-clamp mode, so that the HFS trains were delivered with the membrane potential free to vary. Receptor antagonists were added directly to the ACSF at known concentrations for at least 10 minutes prior to HFS. Control experiments were interleaved with those experiments using receptor antagonists or involving slices from TRPVl^−/− mice. The cell input resistance and series resistance were monitored throughout each experiment; cells were discarded if these values changed by more than 10% during the experiment.

[2] = test system: excitatory synapses onto CA1 hippocampal interneurons; test: Drug-induced depression of EPSC amplitudes, whole-cell recording in hippocampal slices; assay type: cell-based, rat
Source text: as §1, §2
(§3) The maximal initial slope of fEPSPs was calculated using a LabVIEW-based program (National Instruments). The peak amplitude of each EPSC was measured by comparing a 10 msec time period immediately prior to the stimulus with the peak of the EPSC using this program as well. Occasionally polysynaptic responses were evoked, and in these cases, only the initial monosynaptic event was measured. To positively identify LTD, EPSCs measured every 10 seconds were averaged in 1 minute intervals. EPSC amplitude values were normalized to control pre-HFS EPSC amplitude values (baseline period of at least 5 minutes prior to HFS) and subjected to analysis of variance (ANOVA) repeated measures analysis with a post-hoc Dunnett's test (GraphPad Prism, Version 4).

[3] = test system: excitatory synapses on interneurons; test: Drug-induced depression of EPSC amplitudes in slices from TRPV1-/- and C57BL/6 wild-type mice; assay type: cell-based, mouse; conditions: 12-(S)-HPETE 100 nM; TRPV1−/− mice; P=0.33, n=6
Source text: The basic methods have been detailed previously (McMahon and Kauer, 1997). Sprague-Dawley rats (15-22 days old) were used in the majority of experiments. In addition, we used TRPV1^−/− mice (Caterina et al., 2000) and wild-type C57BL/6 mice aged between 15 and 21 days (Jackson Laboratory). The TRPV1^−/− mice we used have been backcrossed at least 10 times onto a C57BL/6 background and were obtained from homozygous breeding pairs. Control mice were therefore not littermates but were age-matched, wild-type C57BL/6 animals received from the same supplier in the same shipment. All animal protocols were approved by the Brown University Institutional Animal Care and Use Committee. For mouse experiments, only one brain slice per mouse was used for each experiment, so that reported ‘n’ numbers represent the number of animals. Animals were anaesthetized using halothane or isoflurane and quickly decapitated. […]
Slices were continuously perfused with ACSF warmed to 28-32° C. at a flow rate of 1-2 ml/min. […] EPSCs were stimulated at 0.1 Hz (100 μsec) using a bipolar stainless steel stimulating electrode placed in stratum radiatum at least 200 μm from the recorded cell. […] In early experiments, we measured rectification ratios of EPSCs evoked at +40 mV/−60 mV in the presence of 50 μM D-AP5, measured at the time of peak inward synaptic current seen at −70 mV (Lei and McBain, 2004).
as §3, with “EPSC amplitude values were normalized to control pre-HFS EPSC amplitude values (baseline period of at least 5 minutes prior to HFS) and subjected to analysis of variance (ANOVA) repeated measures analysis with a post-hoc Dunnett's test (GraphPad Prism, Version 4).” left out

[4] = test system: excitatory synapses onto CA1 hippocampal interneurons; test: Synaptic failure analysis using minimal stimulation; assay type: cell-based, rat; conditions: 12-(S)-HPETE 100 nM; pre-application 35.2±1.9%; n=6
Experimental: as §2, with “CA1 interneurons were voltage clamped at −65 mV (not corrected for the liquid junction potential, of ˜10 mV), and EPSCs were evoked by paired pulses with an interval of 50 msec (stimulus intensity typically 50-400 μA).” left out

[5] = test system: synapses between CA3 and CA1 pyramidal cells; test: Field EPSP recordings in hippocampal slices; assay type: cell-based, rat; conditions: 100 nM 12-(S)-HPETE; P=0.83, n=5
Experimental: The maximal initial slope of fEPSPs was calculated using a LabVIEW-based program (National Instruments). The peak amplitude of each EPSC was measured by comparing a 10 msec time period immediately prior to the stimulus with the peak of the EPSC using this program as well. Occasionally polysynaptic responses were evoked, and in these cases, only the initial monosynaptic event was measured. To positively identify LTD, EPSCs measured every 10 seconds were averaged in 1 minute intervals. EPSC amplitude values were normalized to control pre-HFS EPSC amplitude values (baseline period of at least 5 minutes prior to HFS) and subjected to analysis of variance (ANOVA) repeated measures analysis with a post-hoc Dunnett's test (GraphPad Prism, Version 4). […] EPSC amplitude values 15 to 20 minutes post-HFS were compared between control LTD experiments and those carried out either in transgenic TRPV1^−/− mice, or in the presence of drug using a t-test (unpaired, two-tailed, with Welch's correction if the variances between the groups were unequal). To calculate the effects of capsaicin, 12-(S)-HPETE or WIN 55,212-2 application on basal excitatory glutamatergic transmission, normalized EPSC amplitudes or fEPSP slopes were averaged in the final 5 minutes of drug application and compared with EPSCs/EPSPs 5 minutes prior to drug application. In addition, to measure capsaicin's effects on holding current, the peak change in holding current was measured during bath application of 3 μM capsaicin. The n-values reported refer to the number of slices. All combined data are expressed as mean±the standard error of the mean (s.e.m.).

TRPV1 channels = target: T1, TRPV1 channels (Mus musculus, UniProt Q704Y3); test: TRPV1 agonist-evoked inward current and depolarization in CA1 pyramidal neurons; assay type: cell-based; conditions: 12-(S)-HPETE 100 nM bath-applied
T1 construct: whole-cell recordings from acutely prepared brain slices from wild type C57BL/6 mice; from tissue; host or cells: acute coronal hippocampal slices from P14-P20 wild-type C57BL/6 mice: CA1 pyramidal neurons
T1 sequence (Q704Y3 whole entry): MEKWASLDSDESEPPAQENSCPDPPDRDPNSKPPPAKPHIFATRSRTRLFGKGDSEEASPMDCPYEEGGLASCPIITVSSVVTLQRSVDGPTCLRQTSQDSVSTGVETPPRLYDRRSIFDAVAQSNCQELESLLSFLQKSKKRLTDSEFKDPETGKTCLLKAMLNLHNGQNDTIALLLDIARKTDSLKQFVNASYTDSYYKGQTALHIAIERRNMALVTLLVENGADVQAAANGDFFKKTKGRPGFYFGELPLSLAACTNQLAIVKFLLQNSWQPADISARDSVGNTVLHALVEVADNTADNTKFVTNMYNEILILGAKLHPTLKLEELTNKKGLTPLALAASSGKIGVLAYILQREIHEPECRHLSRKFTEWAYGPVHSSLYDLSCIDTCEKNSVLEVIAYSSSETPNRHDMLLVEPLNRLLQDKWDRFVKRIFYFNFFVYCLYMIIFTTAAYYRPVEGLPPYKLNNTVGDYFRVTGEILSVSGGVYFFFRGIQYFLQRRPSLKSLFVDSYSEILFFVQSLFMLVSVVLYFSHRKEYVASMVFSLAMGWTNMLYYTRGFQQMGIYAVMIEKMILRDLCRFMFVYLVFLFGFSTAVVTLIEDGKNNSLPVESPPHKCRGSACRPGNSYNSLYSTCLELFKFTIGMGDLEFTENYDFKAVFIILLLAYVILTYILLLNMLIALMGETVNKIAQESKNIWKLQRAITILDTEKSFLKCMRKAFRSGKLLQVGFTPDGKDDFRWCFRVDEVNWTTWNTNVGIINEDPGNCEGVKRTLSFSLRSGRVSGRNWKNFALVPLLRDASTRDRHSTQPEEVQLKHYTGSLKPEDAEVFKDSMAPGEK

Structure (SMILES): C=C(C)[C@]12C[C@@H](C)[C@@]34O[C@](Cc5ccccc5)(O[C@@H]1[C@@H]3C=C(COC(=O)Cc1cc(I)c(O)c(OC)c1)C[C@]1(O)C(=O)C(C)=C[C@@H]41)O2 [5′-Iodoresiniferatoxin]
EPSC amplitudes 15-20 minutes post-HFS in 5′-Iodoresiniferatoxin ([1]; 5′-Iodoresiniferatoxin 100 nM bath applied prior to HFS, n=7): 96.2±13.6 % of control values before HFS

12-(S)-HPETE-evoked current in CA1 neuron (TRPV1 channels): induces an inward current
Structure (SMILES): CCCCC/C=C\C[C@@H](/C=C/C=C\C/C=C\CCCC(=O)O)OO [12-(S)-HPETE, 12-(S)-Hydroperoxyeicosa-5Z, 8Z, 10E, 14Z-tetraenoic acid]
EPSC amplitudes 15-20 minutes post-HFS ([1]; HFS after 12-(S)-HPETE 100 nM (occlusion), n=6): 98.7±15.3 % of control values in 12-(S)-HPETE before HFS | EPSC amplitudes after 10-15 minutes in 12-(S)-HPETE ([2]; 12-(S)-HPETE 100 nM bath-applied, n=8): 40.6±11.7 % of pre-drug control values | EPSC amplitudes after 10-15 minutes in 12-(S)-HPETE in TRPV1−/− mice [3]: 109.0±6.8 % of pre-drug control values | average synaptic failures in 12-(S)-HPETE [4]: 89.7±3.0% | fEPSP slopes after 10-15 minutes in 12-(S)-HPETE [5]: 99.0±3.5 % of pre-drug control values

Structure (SMILES): Cc1c(C(=O)NN2CCCCC2)nn(-c2ccc(Cl)cc2Cl)c1-c1ccc(I)cc1 [AM251]
EPSC amplitudes 15-20 minutes post-HFS ([1]; AM251 2 μM bath-applied, n=8): 48.6±5.3 % of control values before HFS | EPSC amplitudes after 10-15 minutes in both WIN 55,212-2 and AM251 ([2]; AM251 2 μM applied before WIN 55,212-2 1 μM, n=5): 101.7±8.9 % of pre-WIN 55,212-2 control values

Structure (SMILES): O=C(O)CN(CC(=O)O)c1ccccc1OCCOc1ccccc1N(CC(=O)O)CC(=O)O [BAPTA, 1,2-bis(o-aminophenoxy)ethane-N,N,N′,N′-tetraacetic acid]
cells recorded from with intracellular BAPTA that had LTD ([1]; patch pipette solution containing 25-40 mM BAPTA): 6 of 14 | EPSC amplitudes 15-20 minutes post-HFS with intracellular BAPTA ([1]; patch pipette solution containing 25-40 mM BAPTA, n=14): 90.5±8.5 % of control values before HFS

Structure (SMILES): N[C@H](CCCP(=O)(O)O)C(=O)O [D-AP5, D(−)-2-amino-5-phosphonovaleric acid]
EPSC amplitudes 15-20 minutes post-HFS ([1]; D-AP5 50 μM in bath, P<0.001, n=26, LTD not prevented): 62.0±5.3 % of control values before HFS
